Assay results taken from patent publication EP0754455A1, “PHARMACEUTICAL COMPOSITIONS BASED ON AMINOMETHYLINDOLES AND THEIR THERAPEUTICAL APPLICATION AS NEUROPROTECTORS IN PARKINSON AND ALZHEIMER DISEASES” (CONSEJO SUPERIOR INVESTIGACIONES CIENTIFICAS (CSIC), priority 1995, dated 1996).
pIC50: −log10 of the molar value.

Biological target: T1, MAO-A (Homo sapiens, UniProt P21397)
T1 construct: performed using homogenated human cerebral cortex obtained from autopsies; from tissue; host or cells: post-mortem human cerebral cortex homogenate
T1 sequence (P21397 1-527): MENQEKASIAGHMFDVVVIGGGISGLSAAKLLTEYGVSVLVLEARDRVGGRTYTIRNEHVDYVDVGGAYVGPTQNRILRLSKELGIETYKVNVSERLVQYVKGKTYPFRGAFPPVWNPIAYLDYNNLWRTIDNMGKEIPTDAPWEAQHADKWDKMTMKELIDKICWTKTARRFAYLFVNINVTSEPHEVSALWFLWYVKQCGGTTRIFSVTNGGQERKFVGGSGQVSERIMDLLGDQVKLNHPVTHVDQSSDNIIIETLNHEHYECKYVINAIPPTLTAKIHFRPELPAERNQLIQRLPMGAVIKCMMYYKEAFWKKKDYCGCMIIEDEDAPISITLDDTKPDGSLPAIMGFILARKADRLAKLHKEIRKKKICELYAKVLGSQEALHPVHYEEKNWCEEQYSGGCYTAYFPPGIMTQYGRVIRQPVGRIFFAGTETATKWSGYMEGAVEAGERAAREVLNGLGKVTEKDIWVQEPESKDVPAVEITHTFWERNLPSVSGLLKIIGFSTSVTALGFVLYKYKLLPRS
Assay: MAO-A inhibition in homogenated human cerebral cortex
Format: biochemical
Text: They were provided by Dr. Fco Javier González Oliván (Forensic Anatomic Institute of the Hospital Clínico Provincial in Barcelona).

## C#CCNCc1cc2cc(OCc3ccccc3)ccc2[nH]1 [FA-73]
  pIC50: 4.70
